# Laboratory results from patent US7488712B2, “Histone deacetylase inhibitors and methods for producing the same” (Kyushu Institute of Technology, priority 2002, dated 2009).
# Like-named read-outs stand apart in the source and are kept apart here. Where a SMILES comes first, the peptide text is derived from it. [ ]: non-standard residue; d: D form. Gly((CH2)5SH) = N[C@@H](CCCCCS)C(=O)O
# How the values were obtained:
# [1] = amide bond, 12-membered ring, HATU/DIEA, DMF
# [2] = tested on: human wild-type p21 promoter; assay: p21 promoter-inducing activity (luciferase) in MFLL-9 cells; type: cell-based
# Method: The HDAC inhibition activity in vivo was measured using p21 promoter-inducing activity as an index, as shown below. The MFLL-9 cells employed for the experiments stably maintained fusion genes of human wild-type p21 promoter and luciferase (Dr. B. Vogelstaein). Using phenol red-free DMEM medium comprising 10% FBS, cultivation was carried out in a steam-saturated incubator at 37° C. with 5% carbon dioxide. The MFLL-9 cells were plated at a density of 85,000 cells/well on a 96-well microtiter plate, each in 99 μl of the above-mentioned medium. These were then cultivated for six hours. One μl of test compound solution was added to each well, which was then cultured for another 18 hours.
# The intensity of luminescence caused by the product of the enzyme reaction for intracellular luciferase expression was measured using Luc Lite (Packard BioScience Company). A group in which test compounds were not added was used as a negative control group. The values measured for this group were used as a standard. The activities for each concentration of added test compound were expressed relative to the above-mentioned standard value, 1.
# [3] = tested on: human uterine cancer cells (HeLa); assay: in vitro; conditions: 48 h
# Method: (§1) Human normal lung cells (TIG-3) and human uterine cancer cells (HeLa) were used to test SCOP cytotoxicity. These TIG-3 and HeLa cells were cultured in a DMEM medium comprising 10% FBS at 37° C. in the presence of 5% carbon dioxide in a steam-saturated incubator. The TIG-3 and HeLa cells were plated in 100 μl/well of the above-described medium on a 96-well microtiter plate, at a density of 30,000 cells/well and 10,000 cells/well respectively. This was then cultured for 18 hours. Test compound solution diluted with medium was added to each well and culture was continued for another 48 hours.
# (§2) 30 μl of supernatant from each well was transferred to another 96-well microtiter plate (A), and the remaining supernatant was discarded. 100 μl of 0.5% Triton-X/PBS was added to each well to lyse the cells, and 30 μl was then transferred to each respective well of another 96-well microtiter plate (B). 30 μl of LDH-Cytotoxic Test (Wako) substrate solution was added to each well of these 96-well microtiter plates A and B, causing a color reaction. Once the color reaction was sufficiently progressed, it was stopped by adding 60 μl of a quenching solution. Color intensity was measured at OD560 nm using a microplate reader (Softmax). [A/(A+B)] was calculated as the free-LDH ratio. […] The higher the activity value for cancer-cell-selective cell damage (LD50 for normal cells/LD50 for cancer cells), the more that cancer-cell-selective apoptosis was induced.
# in vitro = conditions: human, Cancer-Cell-Selective Cytotoxicity
# Method: as §1, §2
# human HDAC1 = target: T1, human HDAC1 (Homo sapiens, UniProt Q13547); assay: In vitro HDAC inhibition activity, [3H]-acetylated histone substrate, HDAC1; type: biochemical
# T1 construct: FLAG; made in house; host or cells: 293T cells (transient transfection, anti-FLAG immunoprecipitation, FLAG peptide elution)
# T1 sequence (Q13547 whole entry): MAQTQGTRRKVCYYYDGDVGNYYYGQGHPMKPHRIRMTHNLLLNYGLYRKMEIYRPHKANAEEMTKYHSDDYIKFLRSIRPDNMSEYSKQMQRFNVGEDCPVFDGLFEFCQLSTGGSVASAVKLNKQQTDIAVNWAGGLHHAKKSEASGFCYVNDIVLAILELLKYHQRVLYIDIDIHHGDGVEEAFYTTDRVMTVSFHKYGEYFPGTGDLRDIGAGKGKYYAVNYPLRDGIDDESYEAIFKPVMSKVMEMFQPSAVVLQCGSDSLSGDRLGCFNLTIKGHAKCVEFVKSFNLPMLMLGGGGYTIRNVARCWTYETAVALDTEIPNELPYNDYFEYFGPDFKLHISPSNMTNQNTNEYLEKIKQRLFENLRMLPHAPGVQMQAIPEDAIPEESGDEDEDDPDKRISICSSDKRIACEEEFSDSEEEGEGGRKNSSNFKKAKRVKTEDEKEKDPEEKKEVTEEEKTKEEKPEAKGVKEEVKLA
# Method: (§3) To measure HDAC inhibition activity, an HDAC solution was prepared as described below. 1×10^7 of 293T cells were plated on to a 100-mm dish and, after 24 hours, transfected with vectors (1 μg) expressing human HDAC1 and HDAC4 or mouse HDAC6, using LipofectAmine 2000 reagent (Life Technologies, Inc. Gaithersburg, Md.). […] The vectors were introduced for five hours in OPTI-MEM. The medium was then replaced with Dulbecco's modified Eagle's medium (DMEM), and incubated for 19 hours. The cells were washed with PBS, suspended in lysis buffer (50 mM Tris-HCl (pH7.5), 120 mM NaCl, 5 mM EDTA, and 0.5% Nonidet P-40), and sonicated. The supernatant was collected by centrifugation and nonspecific protein was removed using Protein A/G plus agarose beads (Santa Cruz Biotechnologies, Inc.). Anti-FLAG M2 antibodies (Sigma-Aldrich, Inc.) were added to the supernatant of cells expressing HDAC1 or HDAC4. Anti-HA antibodies (clone 3F10, Roche Molecular Biochemicals) were added to the supernatant of cells expressing HDAC6. Reaction in the respective mixtures was carried out at 4° C. for one hour. The resulting reaction mixtures were independently mixed with agarose beads and further reacted at 4° C. for one hour. The agarose beads were washed three times with lysis buffer and then washed once with HD buffer (20 mM Tris-HCl (pH8.0), 150 mM NaCl, 10% glycerol, and a complete protease inhibitor cocktail (Boehringer Mannheim, Germany)). […] The HDAC reaction solution was used for determining HDAC inhibition activity as shown below.
# (§4) In vitro HDAC inhibition activity was evaluated as follows: A test compound was dissolved in DMSO and adjusted to 10 mM. This was used as an inhibitor stock solution. […] These reactions were stopped by adding 10 μl HCl. The [^3H] acetic acid excised by the enzyme reaction was extracted with ethyl acetate and subjected to radioactive dose measurement. As a negative control, the same procedure was carried out in which no inhibitor was added to the reaction system. The inhibition activity was expressed as a 50% inhibition concentration (“IC50 (nM)”) of the HDAC activity in the negative control (Tables 1 to 4).
# human HDAC4 = target: T2, human HDAC4 (Homo sapiens, UniProt P56524); assay: In vitro HDAC inhibition activity, [3H]-acetylated histone substrate, HDAC4; type: biochemical
# T2 construct: FLAG; made in house; host or cells: 293T cells (transient transfection, anti-FLAG immunoprecipitation, FLAG peptide elution)
# T2 sequence (O15379 whole entry partner): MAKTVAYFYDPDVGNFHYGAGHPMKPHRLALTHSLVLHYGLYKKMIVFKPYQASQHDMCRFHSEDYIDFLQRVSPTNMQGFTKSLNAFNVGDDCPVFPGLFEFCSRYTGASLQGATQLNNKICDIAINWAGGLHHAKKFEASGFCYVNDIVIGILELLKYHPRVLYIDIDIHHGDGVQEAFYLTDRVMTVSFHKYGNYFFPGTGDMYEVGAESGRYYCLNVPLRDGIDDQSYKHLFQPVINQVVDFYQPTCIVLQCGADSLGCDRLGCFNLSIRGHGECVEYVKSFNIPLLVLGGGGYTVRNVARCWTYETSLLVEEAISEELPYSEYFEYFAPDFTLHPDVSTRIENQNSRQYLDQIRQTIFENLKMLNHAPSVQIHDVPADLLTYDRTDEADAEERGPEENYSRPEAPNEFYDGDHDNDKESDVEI
# T2 sequence (P56524 whole entry): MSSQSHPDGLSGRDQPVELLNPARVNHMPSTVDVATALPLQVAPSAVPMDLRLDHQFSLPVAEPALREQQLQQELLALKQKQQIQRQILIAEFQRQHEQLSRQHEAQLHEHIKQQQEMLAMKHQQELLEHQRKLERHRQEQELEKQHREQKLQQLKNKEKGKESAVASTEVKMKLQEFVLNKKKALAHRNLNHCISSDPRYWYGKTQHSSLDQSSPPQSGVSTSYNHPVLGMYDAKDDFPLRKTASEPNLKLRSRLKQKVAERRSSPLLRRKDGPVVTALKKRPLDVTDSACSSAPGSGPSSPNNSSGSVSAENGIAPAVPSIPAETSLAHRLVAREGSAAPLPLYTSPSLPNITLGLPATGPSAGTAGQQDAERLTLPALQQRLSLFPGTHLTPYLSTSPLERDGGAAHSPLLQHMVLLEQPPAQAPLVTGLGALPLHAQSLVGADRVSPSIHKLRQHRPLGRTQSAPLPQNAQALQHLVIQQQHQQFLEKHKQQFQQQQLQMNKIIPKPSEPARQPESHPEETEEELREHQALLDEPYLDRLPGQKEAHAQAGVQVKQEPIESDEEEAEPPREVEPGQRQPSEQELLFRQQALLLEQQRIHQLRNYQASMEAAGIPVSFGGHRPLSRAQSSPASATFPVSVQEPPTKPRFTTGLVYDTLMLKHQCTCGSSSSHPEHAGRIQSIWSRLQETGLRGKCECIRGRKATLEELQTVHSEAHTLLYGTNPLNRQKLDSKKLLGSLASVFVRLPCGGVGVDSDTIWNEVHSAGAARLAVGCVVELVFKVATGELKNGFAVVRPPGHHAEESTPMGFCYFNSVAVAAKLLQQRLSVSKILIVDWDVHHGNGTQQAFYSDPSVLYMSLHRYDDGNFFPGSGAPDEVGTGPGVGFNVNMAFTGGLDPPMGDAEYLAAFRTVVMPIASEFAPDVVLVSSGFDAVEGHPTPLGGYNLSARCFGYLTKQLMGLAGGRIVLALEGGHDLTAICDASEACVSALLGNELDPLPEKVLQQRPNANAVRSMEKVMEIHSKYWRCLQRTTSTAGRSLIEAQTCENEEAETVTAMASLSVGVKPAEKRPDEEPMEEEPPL
# Method: as §3, §4
# mouse HDAC6 = target: T3, mouse HDAC6 (Mus musculus, UniProt Q9Z2V5); assay: In vitro HDAC inhibition activity, [3H]-acetylated histone substrate, HDAC6; type: biochemical
# T3 construct: HA; made in house; host or cells: 293T cells (transient transfection, anti-HA immunoprecipitation, HA peptide elution)
# T3 sequence (Q9Z2V5 1-1149): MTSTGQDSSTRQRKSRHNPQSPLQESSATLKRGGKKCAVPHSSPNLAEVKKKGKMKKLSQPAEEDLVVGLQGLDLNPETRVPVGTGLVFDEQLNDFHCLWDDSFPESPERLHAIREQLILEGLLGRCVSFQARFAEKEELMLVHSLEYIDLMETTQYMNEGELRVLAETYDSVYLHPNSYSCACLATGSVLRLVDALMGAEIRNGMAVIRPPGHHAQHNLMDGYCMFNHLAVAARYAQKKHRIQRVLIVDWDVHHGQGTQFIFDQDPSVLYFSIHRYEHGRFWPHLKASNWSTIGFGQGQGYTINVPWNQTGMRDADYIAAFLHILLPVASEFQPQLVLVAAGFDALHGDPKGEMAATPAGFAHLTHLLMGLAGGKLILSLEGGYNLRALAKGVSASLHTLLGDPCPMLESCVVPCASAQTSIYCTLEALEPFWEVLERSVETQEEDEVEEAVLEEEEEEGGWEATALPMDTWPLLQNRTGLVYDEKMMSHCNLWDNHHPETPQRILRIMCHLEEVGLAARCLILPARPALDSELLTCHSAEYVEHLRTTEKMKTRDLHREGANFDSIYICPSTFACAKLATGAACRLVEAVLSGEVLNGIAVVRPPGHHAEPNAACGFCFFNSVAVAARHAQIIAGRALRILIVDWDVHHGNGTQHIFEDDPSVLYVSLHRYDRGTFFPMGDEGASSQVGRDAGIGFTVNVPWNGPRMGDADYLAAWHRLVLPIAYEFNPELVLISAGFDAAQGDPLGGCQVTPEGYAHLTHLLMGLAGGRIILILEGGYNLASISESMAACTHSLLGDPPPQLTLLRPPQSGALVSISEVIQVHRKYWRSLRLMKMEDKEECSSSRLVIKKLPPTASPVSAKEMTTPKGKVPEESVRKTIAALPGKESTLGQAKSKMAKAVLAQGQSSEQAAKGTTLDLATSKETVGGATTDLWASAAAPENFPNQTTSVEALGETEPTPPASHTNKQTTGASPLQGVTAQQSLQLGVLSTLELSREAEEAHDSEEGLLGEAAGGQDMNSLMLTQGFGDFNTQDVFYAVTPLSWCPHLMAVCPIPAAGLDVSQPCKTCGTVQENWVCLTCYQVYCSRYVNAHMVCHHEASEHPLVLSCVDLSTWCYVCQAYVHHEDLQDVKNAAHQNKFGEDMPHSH
# Method: as §3, §4
# [4] = Cytotoxicity test (free-LDH ratio), TIG-3; type: cell-based; conditions: human, TIG-3 human normal lung cells
# Method: This was then cultured for 18 hours.
# [5] = Table 1, X = H (coexisting with DTT)
# [6] = from H-dTyr(Me)-Ile-dPro-Ab6-OH, 9.7 mM
smiles,measurement,setting,value
CC[C@H](C)[C@@H]1NC(=O)[C@@H](Cc2ccc(OC)cc2)NC(=O)[C@H](CCCCCCCBr)NC(=O)[C@H]2CCCN2C1=O [cyclo(-L-Ab9-D-Tyr(Me)-L-Ile-D-Pro-)],"ring closure, isolated yield","[1]; from H-Ab9-dTyr(Me)-Ile-dPro-OH, 9.4 mM",61%
CC[C@H](C)[C@@H]1NC(=O)[C@@H](Cc2ccc(OC)cc2)NC(=O)[C@H](CCCCCS)NC(=O)[C@H]2CCCN2C1=O [SCOP 152] (cyclo([Gly((CH2)5SH)][dY](Me)I[dP])),EC50,"[2]; Table 1, X = H (coexisting with DTT), 50% of maximum active value for TSA",309 nM
same,EC50,"[2]; Table 5, purified SCOP 152 under DTT-free conditions",3510 nM
same,LD50 (nM) HeLa,[3],370 nM
same,selectivity ratio at 48 h,in vitro,18.3
same,IC50,human HDAC1; [5],4.6 nM
same,IC50,human HDAC4; [5],2.06 nM
same,IC50,mouse HDAC6; [5],1400 nM
same,CC50 at 48 h,[4]; LD50 (nM) TIG-3,6780 nM
CC[C@H](C)[C@@H]1NC(=O)[C@@H](Cc2ccc(OC)cc2)NC(=O)[C@H](CCCCCBr)NC(=O)[C@H]2CCCN2C1=O [H-Ab7-dTyr(Me)-Ile-dPro-OH],"ring closure, isolated yield","[1]; from H-Ab7-dTyr(Me)-Ile-dPro-OH, 10.2 mM",64%
CC[C@H](C)[C@@H]1NC(=O)[C@@H](Cc2ccc(OC)cc2)NC(=O)[C@H](CCCCOn2nnc3cccnc32)NC(=O)[C@H]2CCCN2C1=O [cyclo(-L-A(OAt)6-D-Tyr(Me)-L-Ile-D-Pro-)],"ring closure, isolated yield",[1]; [6],27%
CC[C@H](C)[C@@H]1NC(=O)[C@@H](Cc2ccc(OC)cc2)NC(=O)[C@H](CCCCCBr)NC(=O)[C@H]2CCCCN2C1=O [cyclo(-L-Ab7-D-Tyr(Me)-L-Ile-D-Pip-)],"ring closure, isolated yield","[1]; from H-dTyr(Me)-Ile-dPip-Ab7-OH?, 2.0 mM",39%
"CC[C@H](C)[C@@H]1NC(=O)[C@@H](Cc2ccc(OC)cc2)NC(=O)[C@H](CCCCCSSC)NC(=O)[C@H]2CCCN2C1=O [SCOP 405, cyclo(-L-Am7(SMe)-D-Tyr(Me)-L-Ile-D-Pro-)]",EC50,"[2]; Table 3, hybrid, without DTT",3260 nM
same,LD50 (nM) HeLa,[3],179 nM
same,selectivity ratio at 48 h,"in vitro; LD50 for normal cells/LD50 for cancer cells (TIG-3/HeLa), without DTT",44.1
same,IC50,"human HDAC1; Table 3, hybrid, without DTT",119 nM
same,IC50,"human HDAC4; Table 3, hybrid, without DTT",405 nM
same,IC50,"mouse HDAC6; Table 3, hybrid, without DTT",191 nM
same,CC50 at 48 h,"[4]; 48 hours, free-LDH ratio 50%, without DTT, read-out: LD50 (nM) TIG-3",7900 nM
CC[C@H](C)[C@@H]1NC(=O)[C@@H](Cc2ccc(OC)cc2)NC(=O)[C@H](CCCCOn2nnc3cccnc32)NC(=O)[C@H]2CCCN2C1=O [cyclo(-L-Ab6-D-Tyr(Me)-L-Ile-D-Pro-)],"ring closure, isolated yield",[1]; [6],23%
CC[C@H](C)[C@@H]1NC(=O)[C@@H](Cc2ccc(OC)cc2)NC(=O)[C@H](CCCCCBr)NC(=O)[C@@H]2CCCN2C1=O [cyclo(-L-Ab7-D-Tyr(Me)-L-Ile-L-Pro-)],"ring closure, isolated yield","[1]; from H-dTyr(Me)-Ile-Pro-Ab7-OH, 1.02 mM",21%
CC[C@H](C)[C@@H]1NC(=O)[C@@H](Cc2ccc(OC)cc2)NC(=O)[C@H](CCCCCBr)NC(=O)[C@@H]2CCCCN2C1=O [cyclo(-L-Ab7-D-Tyr(Me)-L-Ile-L-Pip-)],"ring closure, isolated yield","[1]; from H-dTyr(Me)-Ile-Pip-Ab7-OH?, 2.0 mM",61%
CC[C@H](C)[C@@H]1NC(=O)[C@@H](Cc2ccc(OC)cc2)NC(=O)[C@H](CCCCCCBr)NC(=O)[C@H]2CCCN2C1=O [cyclo(-L-Ab8-D-Tyr(Me)-L-Ile-D-Pro-)],"ring closure, isolated yield","[1]; from H-Ab8-dTyr(Me)-Ile-dPro-OH, 10.0 mM",55%
